Our source for the IC50 values is patent publication US8680113B2, “BMI-1 protein expression modulators” (PTC Therapeutics, Inc., priority 2008, dated 2014).

Bounds are passed on as bounds.

The assay deals with Bmi-1. Description: Sandwich ELISA Assay (Bmi-1 ELISA in HT-1080 cells). The format is cell-based, human. As to the method:
Cell Seeding and Compound Treatment (Day 1):
HT-1080 cells were seeded at 8000 cells/well (50 uL) in 96-well tissue culture plates. After the cells become adherent (3-4 hours), 2× diluted stocks of compounds in 50 uL DMEM containing 1% DMSO (final DMSO concentration was 0.5%) were added and the plates were incubated at 37° C. under 5% CO2 for 40-48 hours
ELISA Plate First Antibody Preparation (Day 2):
The First Antibody (Millipore Mouse, monoclonal to mouse Bmi-1, clone F6, catalog #05-637) diluted to 2 ug/mL in PBS was added (100 uL) to each well of a Nunc MaxiSorp 96-well ELISA plate. The plate was covered with a plate seal and allowed to stand overnight.
Cell Lysate Preparation (Day 3):
Fresh 1× Lysis buffer was prepared on the day of the assay as follows: 1 mM EDTA, 150 mM NaCl, 0.5% Triton-X 100, 10 mM NaF, 20 mM B-Glycerophosphate, 1 mM DTT (in PBS, pH 7.2-7.4) and 1×HALT protease inhibitor cocktail (Pierce #78410).
1× Lysis Buffer (40 uL) was added to each well and the plate was shaken for 5-10 minutes on an orbital shaker to allow cell lysis, then Diluent (1% BSA in PBS in 0.5% NP40) (100 uL) was added to each well.
The Bmi-1 standard curve was prepared in Diluent at the following concentrations of protein: 8000, 4000, 2000, 1000, 500, 250, 125, 0 pg/mL The Bmi-1 Recombinant Protein Standard (Novus Biologicals PCGF4 Recombinant Protein (P01), catalog #H00000648-P01) used in the standard curve was stored at −80° C., and on first thaw, diluted to 10 ug/uL in Blocking Buffer (1% BSA in PBS; BSA: Fisher Scientific Catalog #1600-100) before being aliquoted and refrozen at −80° C. Aliquots can be kept at 4° C. and reused after first thaw, but only for 1-2 weeks. The Bmi-1 Recombinant Protein Standard contains a GST-fusion tag and thus will show up on western blots around 70 Kda.
The prepared ELISA plate was washed 3× with Wash Buffer (0.05% Tween-20 in PBS). The final wash was removed from the plate and the plate was blotted dry on paper towels. Blocking Buffer (300 uL) (1% BSA in PBS) was added per well. The plate was covered with a plate seal and incubated at room temperature for 1 hour. The blocked plate was washed 3× with Wash Buffer, the final wash was removed and the plate was blotted dry on paper towels. The previously prepared samples and standards were added (at 100 uL/well) and the plate was covered with a plate seal and incubated at 4° C. overnight.
The prepared ELISA plate was removed from 4° C., incubated at room temperature for 30 minutes, then washed and blotted dry as previously described for Day 3. The Second Antibody (Cell Signaling Rabbit anti-Bmi-1, Cat#2830) diluted to 1:600 in Blocking Buffer was added (100 uL) to each well, except as needed for background control wells. The plate was covered with a plate seal and incubated for 1.5 hrs at room temperature.
The ELISA plate was washed and blotted dry as previously described. The Third Antibody (Cell Signaling HRP conjugated anti-rabbit IgG (CellSignaling, Cat#:7074) diluted to 1:300 in Blocking Buffer was added (100 uL) to each well, except as needed for background control wells. The plate was incubated for 1 hr at room temperature.
The plate was washed and blotted dry as previously described, then prepared TMB substrate (TMB substrate kit, Pierce catalog #34021) (prepared by mixing kit reagents 1:1) (100 uL) was added per well. The plate was incubated for 20-30 minutes at room temperature in the dark, then Stop Solution (2 M sulfuric acid in water) (50 uL) was added per well. The plates were read at OD450 (experimental) and OD570 (reference).
As for “1-(3-{[4-(6-fluoro-2-methylimidazo[1,2-a]pyridin-3-yl)-1,3-thiazol-2-yl]amino}phenyl)ethanone [Cpd 238]”, the IC50 is under 0.5 µM. The figure for “1-(4-{[4-(imidazo[1,2-a]pyrimidin-3-yl)pyrimidin-2-yl]amino}phenyl)ethanone [Cpd 258]” is under 0.5 µM; for `CCOc1ccc(Nc2nc(-c3c(C)nc4ncccn34)cs2)cc1` [Cpd 13, N-(4-ethoxyphenyl)-4-(2-methylimidazo[1,2-a]pyrimidin-3-yl)thiazol-2-amine] it is under 0.5 µM.

Compound `COc1ccc(Nc2nc(-c3c(C)nc4cc(C)ccn34)cs2)cc1` [Cpd 17, 4-(2,7-dimethylimidazo[1,2-a]pyridin-3-yl)-N-(4-methoxyphenyl)thiazol-2-amine] yielded an IC50 of under 0.5 µM. Next, `COc1cc(Cl)c(Nc2nc(-c3c(C)nc4ncccn34)cs2)c(Cl)c1` [Cpd 19, N-(2,6-dichloro-4-methoxyphenyl)-4-(2-methylimidazo[1,2-a]pyrimidin-3-yl)thiazol-2-amine]: 0.5 to 1 µM. The figure for `COc1cc(F)c(Nc2nc(-c3c(C)nc4ncccn34)cs2)c(F)c1` [Cpd 20, N-(2,6-difluoro-4-methoxyphenyl)-4-(2-methylimidazo[1,2-a]pyrimidin-3-yl)thiazol-2-amine] is 1 to 3 µM; for `Cc1cc(Br)c(Nc2nc(-c3c(C)nc4ncccn34)cs2)c(Br)c1` [Cpd 21, N-(2,6-dibromo-4-methylphenyl)-4-(2-methylimidazo[1,2-a]pyrimidin-3-yl)thiazol-2-amine] it is under 0.5 µM; for `Cc1nc2ncccn2c1-c1csc(Nc2c(Br)cc(Br)cc2Br)n1` [Cpd 22, 4-(2-methylimidazo[1,2-a]pyrimidin-3-yl)-N-(2,4,6-tribromophenyl)thiazol-2-amine] it is under 0.5 µM. The figure for `COCCOc1cc(Br)c(Nc2nc(-c3c(C)nc4ncccn34)cs2)c(Br)c1` [Cpd 23, N-(2,6-dibromo-4-(2-methoxyethoxy)phenyl)-4-(2-methylimidazo[1,2-a]pyrimidin-3-yl)thiazol-2-amine] is 1 to 3 µM; for `Cc1ccn2c(-c3csc(Nc4cccc(O)c4)n3)c(C)nc2c1` [Cpd 31, 3-{[4-(2,7-dimethylimidazo[1,2-a]pyridin-3-yl)-1,3-thiazol-2-yl]amino}phenol] it is under 0.5 µM. In turn, `Cc1ccc(Nc2nc(-c3c(C)nc4cc(C)ccn34)cs2)cc1` [Cpd 32, 4-(2,7-dimethylimidazo[1,2-a]pyridin-3-yl)-N-(4-methylphenyl)-1,3-thiazol-2-amine] gave an IC50 of under 0.5 µM. The figure for `CC(=O)c1ccc(Nc2nc(-c3c(C)nc4cc(C)ccn34)cs2)cc1` [Cpd 33, 1-(4-{[4-(2,7-dimethylimidazo[1,2-a]pyridin-3-yl)-1,3-thiazol-2-yl]amino}phenyl)ethanone] is under 0.5 µM; for `CC(=O)c1ccc(Nc2nc(-c3c(C)nc4ncccn34)cs2)cc1` [Cpd 34, 1-(4-{[4-(2-methylimidazo[1,2-a]pyrimidin-3-yl)-1,3-thiazol-2-yl]amino}phenyl)ethanone] it is under 0.5 µM; for `Cc1nc2ccccn2c1-c1csc(Nc2cccc(O)c2)n1` [Cpd 35, 3-{[4-(2-methylimidazo[1,2-a]pyridin-3-yl)-1,3-thiazol-2-yl]amino}phenol] it is under 0.5 µM.

The compound `Cc1nc2ccccn2c1-c1csc(Nc2ccc(O)cc2)n1` [Cpd 36, 4-{[4-(2-methylimidazo[1,2-a]pyridin-3-yl)-1,3-thiazol-2-yl]amino}phenol] returned an IC50 of under 0.5 µM. Next, `Cc1nc2ncccn2c1-c1csc(Nc2ccc3c(c2)OCO3)n1` [Cpd 37, N-(1,3-benzodioxol-5-yl)-4-(2-methylimidazo[1,2-a]pyrimidin-3-yl)-1,3-thiazol-2-amine]: under 0.5 µM; `Cc1nc2ncccn2c1-c1csc(Nc2c(Cl)cccc2Cl)n1` [Cpd 38, N-(2,6-dichlorophenyl)-4-(2-methylimidazo[1,2-a]pyrimidin-3-yl)-1,3-thiazol-2-amine]: under 0.5 µM.

Compound `Cc1nc2ncccn2c1-c1csc(N(C)c2ccc3c(c2)OCO3)n1` [Cpd 40, N-(1,3-benzodioxol-5-yl)-N-methyl-4-(2-methylimidazo[1,2-a]pyrimidin-3-yl)-1,3-thiazol-2-amine] had an IC50 of under 0.5 µM. Next, `Cc1nc2ccccn2c1-c1csc(Nc2ccc(N(C)C)cc2)n1` [Cpd 41, N,N-dimethyl-N′-[4-(2-methylimidazo[1,2-a]pyridin-3-yl)-1,3-thiazol-2-yl]benzene-1,4-diamine]: under 0.5 µM; `Cc1nc2ncccn2c1-c1ccnc(Nc2ccc(N(C)C)cc2)n1` [Cpd 43, N,N-dimethyl-N′-[4-(2-methylimidazo[1,2-a]pyrimidin-3-yl)pyrimidin-2-yl]benzene-1,4-diamine]: under 0.5 µM; `COc1ccc(Nc2nc(-c3c(C)nc4ccccn34)cs2)cc1` [Cpd 44, N-(4-methoxyphenyl)-4-(2-methylimidazo[1,2-a]pyridin-3-yl)-1,3-thiazol-2-amine]: under 0.5 µM. Next, `COc1ccc(Nc2nc(-c3c(C)nc4ncccn34)cs2)cc1F` [Cpd 45, N-(3-fluoro-4-methoxyphenyl)-4-(2-methylimidazo[1,2-a]pyrimidin-3-yl)-1,3-thiazol-2-amine]: under 0.5 µM; `COc1ccc(Nc2nc(-c3c(C)nc4ncccn34)cs2)cc1Cl` [Cpd 46, N-(3-chloro-4-methoxyphenyl)-4-(2-methylimidazo[1,2-a]pyrimidin-3-yl)-1,3-thiazol-2-amine]: under 0.5 µM; `COc1ccc(N(C)c2nccc(-c3c(C)nc4ncccn34)n2)cc1` [Cpd 47, N-(4-methoxyphenyl)-N-methyl-4-(2-methylimidazo[1,2-a]pyrimidin-3-yl)pyrimidin-2-amine]: under 0.5 µM. The compound `Cc1nc2ncccn2c1-c1csc(Nc2ccc(Br)cc2)n1` [Cpd 48, N-(4-bromophenyl)-4-(2-methylimidazo[1,2-a]pyrimidin-3-yl)-1,3-thiazol-2-amine] had an IC50 of under 0.5 µM.

In turn, `COc1ccc(Nc2nc(-c3c(C)nc4ccccn34)cs2)cc1Cl` [Cpd 50, N-(3-chloro-4-methoxyphenyl)-4-(2-methylimidazo[1,2-a]pyridin-3-yl)-1,3-thiazol-2-amine] showed an IC50 of under 0.5 µM.

The compound `COc1ccc(Nc2nc(-c3c(C)nc4ccccn34)cs2)cc1F` [Cpd 51, N-(3-fluoro-4-methoxyphenyl)-4-(2-methylimidazo[1,2-a]pyridin-3-yl)-1,3-thiazol-2-amine] showed a 50% inhibitory concentration (IC50) of under 0.5 µM. The figure for `COCCOc1ccc(Nc2nc(-c3c(C)nc4ccccn34)cs2)cc1` [Cpd 52, N-[4-(2-methoxyethoxy)phenyl]-4-(2-methylimidazo[1,2-a]pyridin-3-yl)-1,3-thiazol-2-amine] is under 0.5 µM; for `Cc1nc2ccccn2c1-c1csc(Nc2ccc(I)cc2)n1` [Cpd 53, N-(4-iodophenyl)-4-(2-methylimidazo[1,2-a]pyridin-3-yl)-1,3-thiazol-2-amine] it is under 0.5 µM; for `COCCOc1cc(Br)c(Nc2nc(-c3c(C)nc4ccccn34)cs2)c(Br)c1` [Cpd 54, N-[2,6-dibromo-4-(2-methoxyethoxy)phenyl]-4-(2-methylimidazo[1,2-a]pyridin-3-yl)-1,3-thiazol-2-amine] it is under 0.5 µM. Regarding `CC(=O)c1ccc(Nc2nc(-c3c(C)nc4ccccn34)cs2)cc1` [Cpd 55, 1-(4-{[4-(2-methylimidazo[1,2-a]pyridin-3-yl)-1,3-thiazol-2-yl]amino}phenyl)ethanone], the concentration for half-maximal inhibition (IC50) was under 0.5 µM. Next, `Cc1nc2ccccn2c1-c1csc(Nc2ccc3c(c2)OCO3)n1` [Cpd 56, N-(1,3-benzodioxol-5-yl)-4-(2-methylimidazo[1,2-a]pyridin-3-yl)-1,3-thiazol-2-amine]: under 0.5 µM.
